Data on 2 compounds can be found in US20170266218A1, “NAD+ COENZYME FORMULATION AND METHODS OF MAKING AND USING THE SAME” (Steve McNerlin, priority 2016, published 2017).

A short description of series [1]: Applicant's finding on therapeutic activity of NAD+ versus NADH for the disclosed uses. The source says:
As such, Applicant believes NAD+ alone is responsible for the activities disclosed herein. […] Applicant therefore defines NADH as having a negative net NAD+ value.

Series [2] has as its system hair growth (follicular stimulation; SIRT1 enzyme). The series can be described thus: Database trial: weekly scalp micro injections of SIRT1 activator (NAD+), hair growth followed by trichoscan. Format: in vivo, human. The method, then:
All six patients underwent weekly micro injections to the subcutaneous fatty layer of the affected layer of the scalp using 4 ml of a SIRT1 Activator (NAD+) over a 24 week period using a commercially available Biophymed CE certified U225 mesotherapy device. The SIRT 1 activator was specially prepared from our written protocol.
Patients were followed for safety and tolerability as well as for monitoring differences in hair growth. In order to track progress over time, we employed global photography, and a 60 second patient observational assessment tool based on a standardized 60 second hair count protocol, haircount and trichoscan analysis (Fotofinder); Trichoscan analysis allows us to quantitatively track the following parameters: hair count, hair density, anagen/telogen rates, along with cumulative hair thickness Patients were asked to return to the clinic at 6 weeks, 12 weeks after the intervention.

The conditions of series [3]: cited from earlier work.

Consider `NC(=O)C1=CN([C@@H]2O[C@H](COP(=O)(O)OP(=O)(O)OC[C@H]3O[C@@H](n4cnc5c(N)ncnc54)[C@H](O)[C@@H]3O)[C@@H](O)[C@H]2O)C=CC1` [NADH, reference compound], for which the “therapeutic effectiveness for the uses disclosed” value in series [1] is “entirely inactive”.
For `NC(=O)c1ccc[n+]([C@@H]2O[C@H](COP(=O)([O-])OP(=O)(O)OC[C@H]3O[C@@H](n4cnc5c(N)ncnc54)[C@H](O)[C@@H]3O)[C@@H](O)[C@H]2O)c1` [NAD+, Nicotinamide adenine dinucleotide], the “average increase in hair count” value in series [2] (12 week trichoscan parameters, six patients, weekly micro injections of 4 ml to subcutaneous fatty layer of scalp) turned out to be 21%. For the same compound, the “preliminary results of hair growth trial” value in series [2] (overall conclusion of the trial) is “statistically significant and positive”. In addition, in series [1], the “therapeutic effectiveness for the uses disclosed” value is “therapeutically effective”. In series [3] (4° C. and neutral pH), the stability of solutions entry is “stable for about a week”. In addition, in series [3] (acids or alkalis), the “stability of solutions in acids or alkalis” value is “decompose rapidly”.
